Results from PubChem BioAssay AID1259407 (Chemical Carcinogenesis Research Information System (CCRIS), 2018).
Active and inactive are the calls of the source. The rule behind the calls is not given here.

Tested on: CCRIS mutagenicity, Ames/micronucleus/aberration tests
Experiment: CCRIS mutagenicity studies
[1] = Test System: AMES SALMONELLA TYPHIMURIUM, Strain/Indicator: TA98, Metabolic Activation: NONE, Method: PREINCUBATION
[2] = Test System: AMES SALMONELLA TYPHIMURIUM, Strain/Indicator: TA100, Metabolic Activation: NONE, Method: PREINCUBATION
[3] = Test System: AMES SALMONELLA TYPHIMURIUM, Strain/Indicator: TA1535, Metabolic Activation: NONE, Method: PREINCUBATION
[4] = Test System: AMES SALMONELLA TYPHIMURIUM, Strain/Indicator: TA1537, Metabolic Activation: NONE, Method: PREINCUBATION

C=CC=O
mutagenic call (End Point: IN VITRO CHROMOSOMAL ABERRATIONS, Test System: CHINESE HAMSTER OVARY CELLS, Metabolic Activation: NONE): inactive; negative
mutagenic call (End Point: IN VITRO CHROMOSOMAL ABERRATIONS, Test System: CHINESE HAMSTER OVARY CELLS, Metabolic Activation: RAT, LIVER, S-9, AROCLOR 1254): inactive; negative
mutagenic call [1]: active; positive
mutagenic call (Test System: AMES SALMONELLA TYPHIMURIUM, Strain/Indicator: TA100, Metabolic Activation: GLUTATHIONE, Method: PREINCUBATION): active; positive
mutagenic call [2]: active; positive
mutagenic call (Test System: AMES SALMONELLA TYPHIMURIUM, Strain/Indicator: TA100, Metabolic Activation: RAT, LIVER, S-9, AROCLOR 1254, Method: PREINCUBATION): active; positive
mutagenic call (Test System: AMES SALMONELLA TYPHIMURIUM, Strain/Indicator: TA102, Metabolic Activation: NONE, Method: STANDARD PLATE): inactive; negative
mutagenic call (Test System: AMES SALMONELLA TYPHIMURIUM, Strain/Indicator: TA104, Metabolic Activation: GLUTATHIONE, Method: PREINCUBATION): active; positive
mutagenic call (Test System: AMES SALMONELLA TYPHIMURIUM, Strain/Indicator: TA104, Metabolic Activation: NONE, Method: PREINCUBATION): active; positive
mutagenic call [3]: inactive; negative
mutagenic call (Test System: AMES SALMONELLA TYPHIMURIUM, Strain/Indicator: TA1535, Metabolic Activation: RAT, LIVER, S-9, AROCLOR 1254, Method: PREINCUBATION): inactive; negative
mutagenic call [4]: inactive; negative
mutagenic call (Test System: AMES SALMONELLA TYPHIMURIUM, Strain/Indicator: TA1537, Metabolic Activation: RAT, LIVER, S-9, AROCLOR 1254, Method: PREINCUBATION): inactive; negative
mutagenic call (Test System: AMES SALMONELLA TYPHIMURIUM, Strain/Indicator: TA1538, Metabolic Activation: NONE, Method: PREINCUBATION): inactive; negative
mutagenic call (Test System: AMES SALMONELLA TYPHIMURIUM, Strain/Indicator: TA1538, Metabolic Activation: RAT, LIVER, S-9, AROCLOR 1254, Method: PREINCUBATION): inactive; negative
mutagenic call (Test System: AMES SALMONELLA TYPHIMURIUM, Strain/Indicator: TA2638, Metabolic Activation: NONE, Method: STANDARD PLATE): active; positive
mutagenic call (Test System: CHINESE HAMSTER OVARY, Strain/Indicator: AS52/6-THIOGUANINE, Metabolic Activation: NONE, Method: STANDARD PLATE): inactive; negative
mutagenic call (Test System: CHINESE HAMSTER OVARY, Strain/Indicator: CHO-K1-BH4 (HGPRT)/6-THIOGUANINE, Metabolic Activation: NONE): inactive; negative
mutagenic call (Test System: CHINESE HAMSTER OVARY, Strain/Indicator: CHO-K1-BH4 (HGPRT)/6-THIOGUANINE, Metabolic Activation: RAT, LIVER, S-9, AROCLOR 1254): inactive; negative
mutagenic call (Test System: CHINESE HAMSTER V-79, Strain/Indicator: V-79/6-THIOGUANINE, Metabolic Activation: NONE): active; positive
mutagenic call (Test System: E. COLI, Strain/Indicator: WP2 (PKM101), Metabolic Activation: NONE, Method: STANDARD PLATE): inactive; negative
mutagenic call (Test System: E. COLI, Strain/Indicator: WP2 UVRA (PKM101), Metabolic Activation: NONE, Method: STANDARD PLATE): inactive; negative
mutagenic call (Test System: E. COLI, Strain/Indicator: WP2 UVRA, Metabolic Activation: NONE, Method: PREINCUBATION): inactive; negative

O=C(Nc1ccc(Cl)cc1)Nc1ccc(Cl)c(Cl)c1
mutagenic call (Test System: AMES SALMONELLA TYPHIMURIUM, Strain/Indicator: TA98, Metabolic Activation: HAMSTER, LIVER, S-9, AROCLOR 1254 (10%), Method: PREINCUBATION): inactive; negative
mutagenic call [1]: inactive; negative
mutagenic call (Test System: AMES SALMONELLA TYPHIMURIUM, Strain/Indicator: TA98, Metabolic Activation: RAT, LIVER, S-9, AROCLOR 1254 (10%), Method: PREINCUBATION): inactive; negative
mutagenic call (Test System: AMES SALMONELLA TYPHIMURIUM, Strain/Indicator: TA100, Metabolic Activation: HAMSTER, LIVER, S-9, AROCLOR 1254 (10%), Method: PREINCUBATION): inactive; negative
mutagenic call [2]: inactive; negative
mutagenic call (Test System: AMES SALMONELLA TYPHIMURIUM, Strain/Indicator: TA100, Metabolic Activation: RAT, LIVER, S-9, AROCLOR 1254 (10%), Method: PREINCUBATION): inactive; negative
mutagenic call (Test System: AMES SALMONELLA TYPHIMURIUM, Strain/Indicator: TA1535, Metabolic Activation: HAMSTER, LIVER, S-9, AROCLOR 1254 (10%), Method: PREINCUBATION): inactive; negative
mutagenic call [3]: inactive; negative
mutagenic call (Test System: AMES SALMONELLA TYPHIMURIUM, Strain/Indicator: TA1535, Metabolic Activation: RAT, LIVER, S-9, AROCLOR 1254 (10%), Method: PREINCUBATION): inactive; negative
mutagenic call (Test System: AMES SALMONELLA TYPHIMURIUM, Strain/Indicator: TA1537, Metabolic Activation: HAMSTER, LIVER, S-9, AROCLOR 1254 (10%), Method: PREINCUBATION): inactive; negative
mutagenic call [4]: inactive; negative
mutagenic call (Test System: AMES SALMONELLA TYPHIMURIUM, Strain/Indicator: TA1537, Metabolic Activation: RAT, LIVER, S-9, AROCLOR 1254 (10%), Method: PREINCUBATION): inactive; negative

CC(=O)C1=CC[C@H]2C3=CCC4=C[C@@H](O)[C@H](O)C[C@]4(C)C3C[C@@H](O)[C@]12C (some centres undefined)
mutagenic call (Test System: AMES SALMONELLA TYPHIMURIUM, Strain/Indicator: TM677, Metabolic Activation: NONE, Method: STANDARD PLATE): inactive; negative
mutagenic call (Test System: AMES SALMONELLA TYPHIMURIUM, Strain/Indicator: TM677, Metabolic Activation: RAT, LIVER, S-9, AROCLOR 1254, Method: STANDARD PLATE): inactive; negative
mutagenic call (Test System: CHINESE HAMSTER OVARY, Strain/Indicator: CHO/6-THIOGUANINE, Metabolic Activation: NONE, Method: STANDARD PLATE): inactive; negative

CC(C)(C)c1cc(-c2ccccc2)ccc1NO
mutagenic call (Test System: AMES SALMONELLA TYPHIMURIUM, Strain/Indicator: TA98, Metabolic Activation: NONE, Method: STANDARD PLATE): active; positive
mutagenic call (Test System: AMES SALMONELLA TYPHIMURIUM, Strain/Indicator: TA98, Metabolic Activation: S-9, Method: STANDARD PLATE): active; positive
mutagenic call (Test System: AMES SALMONELLA TYPHIMURIUM, Strain/Indicator: TA100, Metabolic Activation: NONE, Method: STANDARD PLATE): active; positive
mutagenic call (Test System: AMES SALMONELLA TYPHIMURIUM, Strain/Indicator: TA100, Metabolic Activation: S-9, Method: STANDARD PLATE): active; positive

CCc1ccc(NO)cc1
mutagenic call (Test System: E. COLI, Strain/Indicator: WP2 UVRA, Metabolic Activation: NONE, Method: FLUCTUATION TEST): active; positive

Cc1cc(O)c2c(c1O)C(=O)c1cccc(O)c1C2=O
mutagenic call (Test System: UDS RODENT HEPATOCYTES, Strain/Indicator: THY INCORP, Metabolic Activation: NONE, Method: AUTORADIOGRAPHY): inactive; negative

CC(O)CC(C)(C)O (centres undefined)
mutagenic call (Test System: Ames Salmonella typhimurium, Strain/Indicator: TA98, Metabolic Activation: None, Method: Preincubation): inactive; negative
mutagenic call (Test System: Ames Salmonella typhimurium, Strain/Indicator: TA98, Metabolic Activation: Rat, Liver, S9, Sodium phenobarbital and 5,6-benzoflavone (10%), Method: Preincubation): inactive; negative
mutagenic call (Test System: Ames Salmonella typhimurium, Strain/Indicator: TA100, Metabolic Activation: None, Method: Preincubation): inactive; negative
mutagenic call (Test System: Ames Salmonella typhimurium, Strain/Indicator: TA100, Metabolic Activation: Rat, Liver, S9, Sodium phenobarbital and 5,6-benzoflavone (10%), Method: Preincubation): inactive; negative
mutagenic call (Test System: Ames Salmonella typhimurium, Strain/Indicator: TA1535, Metabolic Activation: None, Method: Preincubation): inactive; negative
mutagenic call (Test System: Ames Salmonella typhimurium, Strain/Indicator: TA1535, Metabolic Activation: Rat, Liver, S9, Sodium phenobarbital and 5,6-benzoflavone (10%), Method: Preincubation): inactive; negative
mutagenic call (Test System: Ames Salmonella typhimurium, Strain/Indicator: TA1537, Metabolic Activation: None, Method: Preincubation): inactive; negative
mutagenic call (Test System: Ames Salmonella typhimurium, Strain/Indicator: TA1537, Metabolic Activation: Rat, Liver, S9, Sodium phenobarbital and 5,6-benzoflavone (10%), Method: Preincubation): inactive; negative
mutagenic call (Test System: E. coli, Strain/Indicator: WP2uvrA/pKM101, Metabolic Activation: None, Method: Preincubation): inactive; negative
mutagenic call (Test System: E. coli, Strain/Indicator: WP2uvrA/pKM101, Metabolic Activation: Rat, Liver, S9, Sodium Phenobarbital and 5,6-benzoflavone (10%), Method: Preincubation): inactive; negative
